Experimental data reported in patent US9422267B2, “Fused pyrimidine compounds and use thereof” (Medivation Technologies, Inc., priority 2012, dated 2016).

How the values were obtained:
[1] = test system: Akt phosphorylation induced by IGF-1R in HT-29 cells; assay: Western blot analysis of Akt phosphorylation induced by IGF-1R; type: cell-based, Human; conditions: then IGF-1 10 ng/mL 10 min, HT-29
HT-29 = assay: Cell Titer-Glo cell viability: HT-29; type: cell-based; conditions: Homo sapiens, HT-29, 72 h
Experimental: (§1) This assay quantitates the ATP present in order to determine the number of viable cells in culture. Briefly, the compounds were incubated with the cells for 72 h, followed by cell lysis. The resulting luminescent signal is proportional to the amount of ATP present and, therefore, directly proportional to the number of cells present in culture.
(§2) Compound nos. […] These cell lines are derived from human lung carcinoma, colon adenocarcinoma, colon adenocarcinoma, colon carcinoma, acute promyelocytic leukemia, colon adenocarcinoma, colon adenocarcinoma (from metastatic site lymph node), respectively.
(§3) Compounds 2b, 5, 6b and 10a were tested along with derivatives in viability assays as described above by Caliper LifeSciences Systems (Hanover, Md.), in A549, HCT-15, HCT-116, MCF-7, MDA-MB-231, OVCAR3, T47D, COLO205, HT-29, BT-20, HCC1187, HL-60, MDA-MB-175, SW-620, and UACC812 cells.

HCT-15 = assay: Cell Titer-Glo cell viability: HCT-15; type: cell-based; conditions: Homo sapiens, HCT-15, 72 h, HCT15, colon carcinoma
Experimental: as §1, §2, §3

LNCaP = assay: Cell Titer-Glo cell viability: LNCaP; type: cell-based; conditions: Homo sapiens
Experimental: Compound nos. […] This panel of cell lines includes an ER− breast carcinoma, primary breast ductal carcinoma, prostate adenocarcinoma, mammary adenocarcinoma, mammary ductal carcinoma, mammary ductal carcinoma, ovary adenocarcinoma, ER+ breast carcinoma, ER-HER2+ mammary ductal carcinoma and an ER+ mammary ductal carcinoma, respectively.
as §1

FAK2(PTK2b) = FAK2(PTK2b) (Homo sapiens, UniProt Q14289); assay: Caliper kinase assay: FAK2(PTK2b); conditions: for inhibition of FAK2 in panel of 11 kinases: 0.01 μM
Experimental: (§4) The compound was tested at concentrations of 1.0×10^−8 and 1.0×10^−9 M in the RapidKinase192™ panel in duplicate. […] The screening was performed using the Caliper EZReader2, a 4-sipper LabChip, and ProfilerPro Kinase Selectivity Assay Kits 1 and 2. The assay measures the conversion of a fluorescent peptide substrate to a phosphorylated product. Briefly, the reaction mixture was introduced through a capillary sipper onto the microfluidic chip, where the substrate and product were electrophoretically separated and detected by laser-induced fluorescence. The time-dependent fluorescence signal indicates the extent of the reaction.
(§5) The kinases tested were AurA, AurB, AurC, AXL, FAK2, IGF1R, InsR, Mer, MET, TrkB and TrkC.
(§6) The assays were conducted using the Caliper LabChip 3000 and a 12-sipper LabChip as described above.

NTRK2 (TRKB) = NTRK2 (TRKB) (Homo sapiens, UniProt Q16620); assay: Caliper kinase profiling: NTRK2 (TRKB); conditions: for inhibition of TrkB in panel of 11 kinases: 0.01 μM; for inhibition at 0.01 µM: read-out: Average % Inh @ 10 nM
Experimental: as §4, §5, §6

TRKC (NTRK3) = TRKC (NTRK3) (Homo sapiens, UniProt Q16288); assay: Caliper kinase profiling: TRKC (NTRK3); conditions: for inhibition of TrkC in panel of 11 kinases: 0.01 μM; for inhibition at 0.01 µM: read-out: Average % Inh @ 10 nM
Experimental: as §4, §5, §6

INSR = target: T1, INSR (Homo sapiens, UniProt P06213); assay: Caliper kinase profiling: INSR; type: biochemical; conditions: for inhibition at 0.01 µM: 10 nM, read-out: Average % Inh @ 10 nM
T1 construct: purchased Caliper LifeSciences (ProfilerPro Kinase Selectivity Assay Kits)
Experimental: as §4

MET = target: T2, MET (Homo sapiens, UniProt P08581); assay: Caliper kinase profiling: MET; type: biochemical; conditions: for inhibition at 0.01 µM: 10 nM, read-out: Average % Inh @ 10 nM
T2 construct: purchased Caliper LifeSciences (ProfilerPro Kinase Selectivity Assay Kits)

ROS(ROS1) = target: T3, ROS(ROS1) (Homo sapiens, UniProt P08922); assay: Caliper kinase profiling: ROS(ROS1); type: biochemical; conditions: for inhibition at 0.01 µM: 10 nM, read-out: Average % Inh @ 10 nM
T3 construct: purchased Caliper LifeSciences (ProfilerPro Kinase Selectivity Assay Kits)
Text: ROS1 is a proto-oncogene and is highly expressed in many cancers.

AurA = target: T4, AurA (Homo sapiens, UniProt O14965); assay: Caliper kinase profiling: AurA
T4 sequence (O14965 1-403): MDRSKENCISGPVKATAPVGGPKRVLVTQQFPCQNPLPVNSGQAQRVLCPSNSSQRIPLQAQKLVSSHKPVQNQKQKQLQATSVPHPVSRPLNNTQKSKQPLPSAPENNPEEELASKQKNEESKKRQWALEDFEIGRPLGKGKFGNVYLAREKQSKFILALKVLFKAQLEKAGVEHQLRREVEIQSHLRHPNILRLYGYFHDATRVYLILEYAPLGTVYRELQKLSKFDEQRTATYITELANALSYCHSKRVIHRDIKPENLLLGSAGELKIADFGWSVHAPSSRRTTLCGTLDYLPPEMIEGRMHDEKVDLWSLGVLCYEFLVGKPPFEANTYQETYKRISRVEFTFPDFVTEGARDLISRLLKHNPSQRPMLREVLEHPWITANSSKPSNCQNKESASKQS
Experimental: as §4, §6

AurB = AurB (Homo sapiens, UniProt Q96GD4); assay: Caliper kinase profiling: AurB
Experimental: as §4, §6

AurC = target: T5, AurC (Homo sapiens, UniProt Q9UQB9); assay: Caliper kinase profiling: AurC
T5 sequence (Q9UQB9 1-309): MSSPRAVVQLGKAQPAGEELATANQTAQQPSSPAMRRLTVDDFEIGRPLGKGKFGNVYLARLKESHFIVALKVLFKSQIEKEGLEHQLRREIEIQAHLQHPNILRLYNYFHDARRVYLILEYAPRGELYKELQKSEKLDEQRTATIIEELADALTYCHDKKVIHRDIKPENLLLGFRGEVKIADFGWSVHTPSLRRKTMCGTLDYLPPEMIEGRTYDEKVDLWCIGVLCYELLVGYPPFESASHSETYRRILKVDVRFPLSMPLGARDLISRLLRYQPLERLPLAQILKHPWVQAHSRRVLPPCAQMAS
Experimental: as §4, §6

IGF1R = IGF1R (Homo sapiens, UniProt P08069); assay: Caliper kinase profiling: IGF1R; type: biochemical; set-up: purchased Caliper LifeSciences (ProfilerPro Kinase Selectivity Assay Kits); conditions: for inhibition at 0.01 µM: 10 nM, read-out: Average % Inh @ 10 nM
Experimental: as §4

[2] = HT-29, colon adenocarcinoma, 72 h incubation, Cell Titer-Glo
[3] = 72 h incubation, Cell Titer-Glo
[4] = Prostate cancer, 72 h incubation, Cell Titer-Glo
[5] = 100 nM, read-out: Average % Inh @ 100 nM
[6] = 1 μM, read-out: Average % Inh @ 1 μM
[7] = read-out: Average % Inh @ 10 nM
[8] = read-out: Average % Inh @ 100 nM
[9] = 1 nM, read-out: Average % Inh @ 1 nM

Sequence of NTRK2 (TRKB) (Q16620 32-822): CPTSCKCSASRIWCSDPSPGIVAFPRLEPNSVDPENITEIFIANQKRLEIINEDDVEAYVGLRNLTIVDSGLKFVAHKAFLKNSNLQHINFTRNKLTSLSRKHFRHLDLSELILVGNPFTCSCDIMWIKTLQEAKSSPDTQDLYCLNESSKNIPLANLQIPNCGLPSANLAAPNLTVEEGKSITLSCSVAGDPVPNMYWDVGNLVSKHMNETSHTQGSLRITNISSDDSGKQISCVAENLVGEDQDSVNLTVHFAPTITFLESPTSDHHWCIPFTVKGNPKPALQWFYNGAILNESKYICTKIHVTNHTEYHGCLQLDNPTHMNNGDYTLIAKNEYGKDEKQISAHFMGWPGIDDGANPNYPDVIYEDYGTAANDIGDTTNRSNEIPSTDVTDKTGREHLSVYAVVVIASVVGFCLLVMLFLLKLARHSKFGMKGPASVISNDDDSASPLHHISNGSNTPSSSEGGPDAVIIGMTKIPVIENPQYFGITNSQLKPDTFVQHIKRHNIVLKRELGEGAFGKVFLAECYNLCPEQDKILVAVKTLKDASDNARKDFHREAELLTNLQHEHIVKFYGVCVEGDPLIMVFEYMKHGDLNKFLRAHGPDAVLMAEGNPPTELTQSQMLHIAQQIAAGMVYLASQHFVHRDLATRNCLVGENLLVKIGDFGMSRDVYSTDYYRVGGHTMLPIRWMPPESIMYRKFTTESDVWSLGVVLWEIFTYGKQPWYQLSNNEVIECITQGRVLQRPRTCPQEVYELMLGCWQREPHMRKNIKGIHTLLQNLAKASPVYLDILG
T1 sequence (P06213 28-1382): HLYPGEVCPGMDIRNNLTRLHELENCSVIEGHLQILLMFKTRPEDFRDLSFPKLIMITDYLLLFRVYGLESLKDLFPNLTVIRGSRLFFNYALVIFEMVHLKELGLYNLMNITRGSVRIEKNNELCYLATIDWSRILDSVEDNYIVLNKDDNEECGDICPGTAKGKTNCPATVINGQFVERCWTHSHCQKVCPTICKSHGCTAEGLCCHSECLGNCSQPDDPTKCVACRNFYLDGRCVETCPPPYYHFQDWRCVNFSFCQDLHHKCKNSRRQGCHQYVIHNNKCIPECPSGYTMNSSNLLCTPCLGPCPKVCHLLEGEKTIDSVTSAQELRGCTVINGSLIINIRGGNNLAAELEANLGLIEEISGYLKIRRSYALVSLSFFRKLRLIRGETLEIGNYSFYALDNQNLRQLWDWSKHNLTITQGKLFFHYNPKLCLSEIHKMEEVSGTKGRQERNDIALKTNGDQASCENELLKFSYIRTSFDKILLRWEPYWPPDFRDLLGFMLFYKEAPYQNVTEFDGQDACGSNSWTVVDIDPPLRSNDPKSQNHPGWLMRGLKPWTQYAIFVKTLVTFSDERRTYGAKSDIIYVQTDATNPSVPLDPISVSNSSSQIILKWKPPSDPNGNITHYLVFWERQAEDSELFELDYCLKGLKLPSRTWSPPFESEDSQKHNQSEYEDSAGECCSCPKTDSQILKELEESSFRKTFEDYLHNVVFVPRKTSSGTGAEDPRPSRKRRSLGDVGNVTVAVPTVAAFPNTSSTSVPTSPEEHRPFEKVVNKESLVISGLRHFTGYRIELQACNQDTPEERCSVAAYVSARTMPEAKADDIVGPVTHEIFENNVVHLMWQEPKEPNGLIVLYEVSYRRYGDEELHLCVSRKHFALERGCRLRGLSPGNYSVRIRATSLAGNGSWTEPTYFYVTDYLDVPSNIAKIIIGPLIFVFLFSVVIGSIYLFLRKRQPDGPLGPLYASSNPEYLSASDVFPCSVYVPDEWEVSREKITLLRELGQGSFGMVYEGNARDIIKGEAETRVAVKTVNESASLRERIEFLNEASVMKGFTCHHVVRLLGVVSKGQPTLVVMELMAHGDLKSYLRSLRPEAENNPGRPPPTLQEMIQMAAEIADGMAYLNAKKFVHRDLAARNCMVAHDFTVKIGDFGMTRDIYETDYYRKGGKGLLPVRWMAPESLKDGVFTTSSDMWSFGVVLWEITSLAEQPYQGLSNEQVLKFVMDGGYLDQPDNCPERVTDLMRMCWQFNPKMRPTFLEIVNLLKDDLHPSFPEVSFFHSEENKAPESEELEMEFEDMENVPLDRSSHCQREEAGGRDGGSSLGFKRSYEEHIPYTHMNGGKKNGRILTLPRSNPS
Sequence of AurB (Q96GD4 whole entry): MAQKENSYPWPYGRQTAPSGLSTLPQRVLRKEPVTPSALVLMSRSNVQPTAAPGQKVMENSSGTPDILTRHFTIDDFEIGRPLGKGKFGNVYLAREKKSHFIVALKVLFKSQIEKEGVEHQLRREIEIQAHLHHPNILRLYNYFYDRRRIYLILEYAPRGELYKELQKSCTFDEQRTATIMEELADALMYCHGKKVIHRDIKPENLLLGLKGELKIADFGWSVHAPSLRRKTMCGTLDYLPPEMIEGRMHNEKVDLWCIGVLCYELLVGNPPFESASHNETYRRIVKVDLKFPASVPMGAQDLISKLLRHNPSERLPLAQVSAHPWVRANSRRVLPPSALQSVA
T2 sequence (P08581 25-1390): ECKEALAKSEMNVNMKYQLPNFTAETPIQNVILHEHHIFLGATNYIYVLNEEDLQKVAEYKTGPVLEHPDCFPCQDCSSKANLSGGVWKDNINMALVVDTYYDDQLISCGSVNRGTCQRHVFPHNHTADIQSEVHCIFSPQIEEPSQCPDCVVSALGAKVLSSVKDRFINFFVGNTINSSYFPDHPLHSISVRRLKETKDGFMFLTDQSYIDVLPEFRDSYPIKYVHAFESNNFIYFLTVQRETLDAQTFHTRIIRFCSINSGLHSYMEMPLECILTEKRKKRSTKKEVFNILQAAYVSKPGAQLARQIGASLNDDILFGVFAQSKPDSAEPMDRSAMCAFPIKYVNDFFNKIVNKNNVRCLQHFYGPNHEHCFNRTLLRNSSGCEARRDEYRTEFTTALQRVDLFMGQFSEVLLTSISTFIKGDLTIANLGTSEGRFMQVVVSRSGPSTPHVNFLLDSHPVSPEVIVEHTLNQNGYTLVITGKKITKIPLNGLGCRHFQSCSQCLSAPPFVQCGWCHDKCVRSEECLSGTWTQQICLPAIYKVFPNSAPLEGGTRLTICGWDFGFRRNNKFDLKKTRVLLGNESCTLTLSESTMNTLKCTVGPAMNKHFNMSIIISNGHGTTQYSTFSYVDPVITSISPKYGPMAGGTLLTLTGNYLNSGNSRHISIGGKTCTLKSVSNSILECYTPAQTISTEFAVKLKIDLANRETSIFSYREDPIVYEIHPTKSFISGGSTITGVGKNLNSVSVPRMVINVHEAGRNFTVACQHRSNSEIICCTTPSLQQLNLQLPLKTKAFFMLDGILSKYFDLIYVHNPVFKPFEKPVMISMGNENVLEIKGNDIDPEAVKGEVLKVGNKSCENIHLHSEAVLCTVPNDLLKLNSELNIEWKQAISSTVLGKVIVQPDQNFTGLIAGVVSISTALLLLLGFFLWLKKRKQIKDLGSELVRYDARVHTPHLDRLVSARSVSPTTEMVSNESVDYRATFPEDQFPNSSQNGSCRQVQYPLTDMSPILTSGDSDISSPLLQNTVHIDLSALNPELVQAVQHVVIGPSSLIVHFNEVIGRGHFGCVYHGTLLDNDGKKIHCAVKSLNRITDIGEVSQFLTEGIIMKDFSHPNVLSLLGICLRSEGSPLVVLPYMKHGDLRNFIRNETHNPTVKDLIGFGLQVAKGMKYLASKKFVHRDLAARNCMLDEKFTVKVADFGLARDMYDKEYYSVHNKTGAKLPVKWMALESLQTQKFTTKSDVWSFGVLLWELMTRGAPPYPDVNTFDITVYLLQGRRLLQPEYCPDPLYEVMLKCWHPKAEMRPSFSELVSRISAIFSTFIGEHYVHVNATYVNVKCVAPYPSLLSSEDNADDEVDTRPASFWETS
Sequence of FAK2(PTK2b) (Q14289 whole entry): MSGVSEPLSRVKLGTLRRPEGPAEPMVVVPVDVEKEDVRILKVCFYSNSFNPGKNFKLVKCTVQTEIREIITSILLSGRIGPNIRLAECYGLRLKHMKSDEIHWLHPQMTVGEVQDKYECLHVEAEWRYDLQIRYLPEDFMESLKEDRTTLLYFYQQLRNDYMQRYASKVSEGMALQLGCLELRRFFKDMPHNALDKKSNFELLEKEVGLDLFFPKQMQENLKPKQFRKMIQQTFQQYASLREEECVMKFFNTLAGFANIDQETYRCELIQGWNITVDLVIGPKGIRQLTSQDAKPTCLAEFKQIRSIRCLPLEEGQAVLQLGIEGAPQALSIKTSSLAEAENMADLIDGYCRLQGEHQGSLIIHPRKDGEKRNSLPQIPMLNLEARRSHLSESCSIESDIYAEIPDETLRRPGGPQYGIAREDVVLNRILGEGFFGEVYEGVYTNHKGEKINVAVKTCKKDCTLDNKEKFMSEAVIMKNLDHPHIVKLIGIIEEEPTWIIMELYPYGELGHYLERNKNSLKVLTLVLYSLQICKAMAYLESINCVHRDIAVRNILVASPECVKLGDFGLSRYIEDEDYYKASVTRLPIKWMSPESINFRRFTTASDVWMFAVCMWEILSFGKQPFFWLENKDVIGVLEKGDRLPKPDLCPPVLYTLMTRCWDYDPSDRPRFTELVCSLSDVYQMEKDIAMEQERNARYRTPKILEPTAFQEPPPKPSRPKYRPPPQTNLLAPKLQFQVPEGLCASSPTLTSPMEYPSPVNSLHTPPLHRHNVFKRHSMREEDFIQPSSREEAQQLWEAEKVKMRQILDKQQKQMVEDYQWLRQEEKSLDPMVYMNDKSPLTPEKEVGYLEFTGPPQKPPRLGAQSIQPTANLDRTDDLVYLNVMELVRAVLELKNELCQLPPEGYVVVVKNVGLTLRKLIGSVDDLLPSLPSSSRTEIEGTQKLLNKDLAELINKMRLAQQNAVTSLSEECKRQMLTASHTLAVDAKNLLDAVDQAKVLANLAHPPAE

For `O=C(Nc1cnccn1)C1CCCN1c1nc2c(c(Nc3cc(C4CC4)[nH]n3)n1)CCC2` (single isomer, unassigned) [Compound 6b], the “phosphorylated AKT levels normalized to actin levels (pAKT/actin)” value ([1]; 0.1 nM compound 2 h) was 0.87, the “phosphorylated AKT levels normalized to actin levels (pAKT/actin)” value ([1]; 1 nM compound 2 h) was 0.18 and the “phosphorylated AKT levels normalized to actin levels (pAKT/actin)” value ([1]; 10 nM compound 2 h) was 0.00. The “phosphorylated AKT levels normalized to actin levels (pAKT/actin)” value ([1]; 100 nM compound 2 h) was 0.00, the IC50 (HT-29; [2]) was under 10 nM and the IC50 (HCT-15; [3]) was 1000 nM. The IC50 (LNCaP; [4]) was 100 nM, the “inhibition of FAK2 in panel of 11 kinases” value (FAK2(PTK2b)) was “strongly inhibited” and the “inhibition of TrkB in panel of 11 kinases” value (NTRK2 (TRKB)) was “strongly inhibited”. For the same molecule, the “inhibition of TrkC in panel of 11 kinases” value (TRKC (NTRK3)) was “strongly inhibited”.
With `O=C(Nc1ccc(F)nc1)C1CCCN1c1nc2c(c(Nc3cc(C4CC4)[nH]n3)n1)CCC2` (single isomer, unassigned) [Compound 2b, 1-(4-(5-cyclopropyl-1H-pyrazol-3-ylamino)-6,7-dihydro-5H-cyclopenta[d]pyrimidin-2-yl)-N-(6-fluoropyridin-3-yl)pyrrolidine-2-carboxamide] the “phosphorylated AKT levels normalized to actin levels (pAKT/actin)” value ([1]; 1 nM compound 2 h) was 0.80, the “phosphorylated AKT levels normalized to actin levels (pAKT/actin)” value ([1]; 10 nM compound 2 h) was 0.22 and the “phosphorylated AKT levels normalized to actin levels (pAKT/actin)” value ([1]; 100 nM compound 2 h) was 0.03. For the same molecule, the inhibition at 0.01 µM (INSR) was under 39%, the inhibition at 0.1 µM (INSR; [5]) was over 60% and the inhibition at 1 µM (INSR; [6]) was over 60%. It also gave an inhibition at 0.01 µM (MET) of under 39%, an inhibition at 0.1 µM (MET; [5]) of over 60% and an inhibition at 1 µM (MET; [6]) of over 60%. It also gave an inhibition at 0.01 µM (ROS(ROS1); ROS (ROS1)) of over 60%, an inhibition at 0.1 µM (ROS(ROS1); ROS (ROS1), 100 nM, read-out: Average % Inh @ 100 nM) of over 60% and an inhibition at 1 µM (ROS(ROS1); ROS (ROS1), 1 μM, read-out: Average % Inh @ 1 μM) of over 60%. The IC50 (HT-29; HT-29, colon cancer, 72 h) was 500 nM, the IC50 (HCT-15; 72 h) was under 10000 nM and the IC50 (HCT-15; [3]) was 1000 nM. For the same molecule, the IC50 (LNCaP; [4]) was under 1000 nM, the inhibition at 0.01 µM (AurA; [7]) was under 39% and the inhibition at 0.1 µM (AurA; [8]) was over 60%. It also gave an inhibition at 1 µM (AurA; read-out: Average % Inh @ 1 μM) of over 60%, an inhibition at 0.01 µM (AurB; [7]) of 40 to 59% and an inhibition at 0.1 µM (AurB; [8]) of over 60%. It also gave an inhibition at 1 µM (AurB; read-out: Average % Inh @ 1 μM) of over 60%, an inhibition at 0.01 µM (AurC; [7]) of over 60% and an inhibition at 0.1 µM (AurC; [8]) of over 60%. It also gave an inhibition at 1 µM (AurC; read-out: Average % Inh @ 1 μM) of over 60%, an inhibition at 0.01 µM (NTRK2 (TRKB)) of over 60% and an inhibition at 0.1 µM (NTRK2 (TRKB); [8]) of over 60%. For the same molecule, the inhibition at 1 µM (NTRK2 (TRKB); read-out: Average % Inh @ 1 μM) was over 60%, the inhibition at 0.01 µM (TRKC (NTRK3)) was over 60% and the inhibition at 0.1 µM (TRKC (NTRK3); [8]) was over 60%. It also gave an inhibition at 1 µM (TRKC (NTRK3); read-out: Average % Inh @ 1 μM) of over 60%, an inhibition at 0.01 µM (IGF1R) of under 39% and an inhibition at 0.1 µM (IGF1R; [5]) of 40 to 59%. The inhibition at 1 µM (IGF1R; [6]) was over 60%.
`CC(C)c1cc(Nc2nc(N3CCCC3C(=O)Nc3ccc(F)nc3)nc3c2CCC3)n[nH]1` (single isomer, unassigned) [Compound 8b] was tested, and the “phosphorylated AKT levels normalized to actin levels (pAKT/actin)” value ([1]; 1 nM compound 2 h) was 0.31, the “phosphorylated AKT levels normalized to actin levels (pAKT/actin)” value ([1]; 10 nM compound 2 h) was 0.04 and the “phosphorylated AKT levels normalized to actin levels (pAKT/actin)” value ([1]; 100 nM compound 2 h) was 0.02. It also gave an inhibition at 0.001 µM (INSR; [9]) of 40 to 59%, an inhibition at 0.01 µM (INSR) of over 60% and an inhibition at 0.001 µM (MET; [9]) of under 39%. For the same molecule, the inhibition at 0.01 µM (MET) was 40 to 59%, the IC50 (ROS(ROS1); ROS1, range of concentrations from 0.03 nM to 1) was 15 nM and the inhibition at 0.001 µM (ROS(ROS1); ROS (ROS1), 1 nM, read-out: Average % Inh @ 1 nM) was 40 to 59%. It also gave an inhibition at 0.01 µM (ROS(ROS1); ROS (ROS1)) of over 60%, an IC50 (HT-29; HT29, colon adenocarcinoma (second entry of the table), 72 h) of under 10 nM and an IC50 (HT-29; HT-29, colon cancer, 72 h) of under 10 nM. For the same molecule, the IC50 (HCT-15; 72 h) was under 10000 nM, the IC50 (LNCaP; prostate cancer, 72 h) was under 10000 nM and the IC50 (AurA) was 132 nM. The IC50 (AurB) was 74.7 nM, the IC50 (AurC) was 41.4 nM and the IC50 (FAK2(PTK2b)) was 2.36 nM. The IC50 (NTRK2 (TRKB)) was 12.2 nM, the inhibition at 0.001 µM (NTRK2 (TRKB); read-out: Average % Inh @ 1 nM) was over 60% and the inhibition at 0.01 µM (NTRK2 (TRKB)) was over 60%. The IC50 (TRKC (NTRK3)) was 3 nM, the inhibition at 0.001 µM (TRKC (NTRK3); read-out: Average % Inh @ 1 nM) was over 60% and the inhibition at 0.01 µM (TRKC (NTRK3)) was over 60%. It also gave an inhibition at 0.001 µM (IGF1R; [9]) of under 39% and an inhibition at 0.01 µM (IGF1R) of over 60%.
`O=C(Nc1ccc(F)nc1)C1CCN1c1nc2c(c(Nc3cc(C4CC4)[nH]n3)n1)CCC2` (racemic) [Compound 5, 1-(4-(5-cyclopropyl-1H-pyrazol-3-ylamino)-6,7-dihydro-5H-cyclopenta[d]pyrimidin-2-yl)-N-(6-fluoropyridin-3-yl)azetidine-2-carboxamide] was tested, and the “phosphorylated AKT levels normalized to actin levels (pAKT/actin)” value ([1]; 1 nM compound 2 h) was 0.61, the “phosphorylated AKT levels normalized to actin levels (pAKT/actin)” value ([1]; 10 nM compound 2 h) was 0.04 and the “phosphorylated AKT levels normalized to actin levels (pAKT/actin)” value ([1]; 100 nM compound 2 h) was 0.00. For the same molecule, the IC50 (HT-29; [2]) was 10 nM, the IC50 (HCT-15; [3]) was under 10000 nM and the IC50 (LNCaP; [4]) was 100 nM. The “inhibition of FAK2 in panel of 11 kinases” value (FAK2(PTK2b)) was “strongly inhibited”, the “inhibition of TrkB in panel of 11 kinases” value (NTRK2 (TRKB)) was “strongly inhibited” and the “inhibition of TrkC in panel of 11 kinases” value (TRKC (NTRK3)) was “strongly inhibited”.
